Patent US10544140B2, “Pharmaceutical composition containing, as active ingredient, 7-azaindolin-2-one derivative or pharmaceutically acceptable salt thereof” (LG CHEM, LTD., priority 2015, dated 2020)

Columns and labels:
U937 (myeloid leukemia) = assay: Cytotoxicity test by MTT assay, U937; type: cell-based, human; conditions: Homo sapiens, U-937; U937, 48 h
Method: (§1) A cytotoxicity test was measured by MTT assay. Each cell line was cultured in a 96-well plate at a density of 1×10^4 cells/well. After 24 hours, the culture medium containing 1% FBS (fetal bovine serum) was treated and reacted with compounds or solutions of compounds for 48 hours. MTT (3-(4,5-dimethylthiazol-2-yl)-2,5-diphenyltetrazolium bromide) solution (5 mg/mL) was added to each well and reacted for 4 hours in an incubator. […] After reacting in an incubator for 30 minutes, the formation of formazan was quantified using a microplate reader at an absorbance of 540 nm. […] The human cancer cell lines used herein are MCF-7 (breast cancer), MDA-MB-231 (breast cancer), HT-29 (colon cancer), DU145 (prostate cancer), U937 (myeloid leukemia), A549 (lung cancer), PANC-1 (pancreatic cancer) and MIA PaCa-2 (pancreatic cancer).

[1] = Cytotoxicity test by MTT assay, HEK293 normal cell line; type: cell-based; conditions: human, HEK293 cells (normal cell line)
Method: (§2) A cytotoxicity test was measured by MTT assay. Each cell line was cultured in a 96-well plate at a density of 1×10^4 cells/well. After 24 hours, the culture medium containing 1% FBS (fetal bovine serum) was treated and reacted with compounds or solutions of compounds for 48 hours. MTT (3-(4,5-dimethylthiazol-2-yl)-2,5-diphenyltetrazolium bromide) solution (5 mg/mL) was added to each well and reacted for 4 hours in an incubator. […] After reacting in an incubator for 30 minutes, the formation of formazan was quantified using a microplate reader at an absorbance of 540 nm.

[2] = system: MCF-7 (human breast cancer cell line); assay: Cytotoxicity test by MTT assay, MCF-7; type: cell-based; conditions: for cytotoxicity at 30 µM / IC50: Homo sapiens, MCF7; for cytotoxicity at 30 µM: MCF-7, 30 μM, 48 h, read-out: Cell viability (% inhibition); for IC50: MCF-7, 48 h
Method: (§3) A cytotoxicity test was measured by MTT assay. Each cell line was cultured in a 96-well plate at a density of 1×10^4 cells/well. […] MTT (3-(4,5-dimethylthiazol-2-yl)-2,5-diphenyltetrazolium bromide) solution (5 mg/mL) was added to each well and reacted for 4 hours in an incubator. […] After reacting in an incubator for 30 minutes, the formation of formazan was quantified using a microplate reader at an absorbance of 540 nm. […] At this time, sunitinib was used as a control group. […] The human cancer cell lines used herein are MCF-7 (breast cancer), MDA-MB-231 (breast cancer), HT-29 (colon cancer), DU145 (prostate cancer), U937 (myeloid leukemia), A549 (lung cancer), PANC-1 (pancreatic cancer) and MIA PaCa-2 (pancreatic cancer).

[3] = Cytotoxicity test by MTT assay, CHO-K1 normal cell line; type: cell-based; conditions: Chinese hamster, CHO-K1 cells (normal cell line)
Method: as §2

[4] = system: MDA-MB-231 (breast cancer); assay: Cytotoxicity test by MTT assay, MDA-MB-231; type: cell-based, human; conditions: Homo sapiens, MBA-MB-231, 48 h
Method: as §1

A549 (lung cancer) = assay: Cytotoxicity test by MTT assay, A549; type: cell-based, human; conditions: Homo sapiens, A549, 48 h
Method: as §1

[5] = system: PANC-1 (human pancreatic cancer cell line); assay: Cytotoxicity test by MTT assay, PANC-1; type: cell-based; conditions: for cytotoxicity at 30 µM: PANC-1, 30 μM, 48 h, read-out: Cell viability (% inhibition)
Method: as §3

HT-29 (colon cancer) = assay: Cytotoxicity test by MTT assay, HT-29; type: cell-based, human; conditions: Homo sapiens, HT-29, 48 h
Method: as §1

DU145 (prostate cancer) = assay: Cytotoxicity test by MTT assay, DU145; type: cell-based, human; conditions: DU-145; for IC50: Homo sapiens, DU145, 48 h
Method: as §1

SMILES: Cc1nc2c(c(C)c1O)/C(=C/c1[nH]c(C)c(C(=O)O)c1C)C(=O)N2 [Compound I-37, (Z)-5-((5-Hydroxy-4,6-dimethyl-2-oxo-1H-pyrrolo[2,3-b]pyridin-3(2H)-ylidene)methyl)-2,4-dimethyl-1H-pyrrole-3-carboxylic acid]
- IC50 (U937 (myeloid leukemia)): 14.8 µM
- IC50 at 48 h [1]: 38 µM
- cytotoxicity at 30 µM [2]: 60.4%
- IC50 [2]: 14.8 µM
- IC50 at 48 h [3]: 33.1 µM
- IC50 [4]: 19.5 µM
- IC50 (A549 (lung cancer)): 19.9 µM
- cytotoxicity at 30 µM ([5]; Homo sapiens): 55.8%
- IC50 (HT-29 (colon cancer)): 26.2 µM

SMILES: Cc1nc2c(c(C)c1O)/C(=C/C(c1ccccc1)c1ccccc1)C(=O)N2 [Compound I-19, (Z)-3-(2,2-Diphenylethylidene)-5-hydroxy-4,6-dimethyl-1H-pyrrolo[2,3-b]pyridin-2(3H)-one]
- IC50 (DU145 (prostate cancer)): 8.77 µM
- IC50 (U937 (myeloid leukemia)): 16.6 µM
- IC50 at 48 h [1]: 26.2 µM
- cytotoxicity at 30 µM [2]: 78.1%
- IC50 [2]: 6.37 µM
- cytotoxicity compared with the reference drug sunitinib ([2]; MCF-7): greater than or equal to that of the reference drug sunitinib
- IC50 at 48 h [3]: 30.1 µM
- IC50 [4]: 22.9 µM
- IC50 (A549 (lung cancer)): 31.5 µM
- IC50 ([5]; Homo sapiens, PANC-1, 48 h): 7.41 µM
- cytotoxicity at 30 µM ([5]; Homo sapiens): 81.4%
- cytotoxicity compared with the reference drug sunitinib ([5]; PANC-1): greater than or equal to that of the reference drug sunitinib
- IC50 (HT-29 (colon cancer)): 11.5 µM

SMILES: CCCCC/C=C1\C(=O)Nc2nc(C)c(O)c(C)c21 [Compound I-01, (Z)-3-Hexylidene-5-hydroxy-4,6-dimethyl-1H-pyrrolo[2,3-b]pyridin-2(3H)-one]
- IC50 (DU145 (prostate cancer)): 11 µM
- IC50 (U937 (myeloid leukemia)): 11.5 µM
- IC50 at 48 h [1]: > 90 µM
- cytotoxicity at 30 µM [2]: 76.9%
- IC50 [2]: 13.8 µM
- IC50 at 48 h [3]: 20.9 µM
- IC50 [4]: 12.6 µM
- IC50 (A549 (lung cancer)): 7.6 µM
- cytotoxicity at 30 µM ([5]; Homo sapiens): 77.4%
- IC50 (HT-29 (colon cancer)): 12.9 µM

SMILES: Cc1nc2c(c(C)c1O)/C(=C/c1cccnc1)C(=O)N2 [Compound I-22, (Z)-5-Hydroxy-4,6-dimethyl-3-(pyridin-3-ylmethylene)-1H-pyrrolo[2,3-b]pyridin-2(3H)-one]
- cytotoxicity compared with the reference drug sunitinib (DU145 (prostate cancer)): greater than or equal to that of the reference drug sunitinib
- IC50 (DU145 (prostate cancer)): 1.18 µM
- IC50 (U937 (myeloid leukemia)): 14.5 µM
- IC50 at 48 h [1]: > 90 µM
- cytotoxicity at 30 µM [2]: 78%
- IC50 [2]: 17.4 µM
- IC50 at 48 h [3]: 78.5 µM
- IC50 [4]: 9.61 µM
- IC50 (A549 (lung cancer)): 13.8 µM
- cytotoxicity at 30 µM ([5]; Homo sapiens): 72.7%
- IC50 (HT-29 (colon cancer)): 19.9 µM

SMILES: Cc1nc2c(c(C)c1O)/C(=C/c1[nH]c(C)c(C(=O)N3CCN(C)CC3)c1C)C(=O)N2 [Compound I-45, (Z)-3-((3,5-Dimethyl-4-(4-methylpiperazine-1-carbonyl)-1H-pyrrol-2-yl)methylene)-5-hydroxy-4,6-dimethyl-1H-pyrrolo[2,3-b]pyridin-2(3H)-one]
- IC50 (U937 (myeloid leukemia)): 26.2 µM
- IC50 at 48 h [1]: 38 µM
- cytotoxicity at 30 µM [2]: 60.7%
- IC50 [2]: 10.2 µM
- IC50 at 48 h [3]: 23.4 µM
- IC50 [4]: 16.2 µM
- IC50 (A549 (lung cancer)): 26.3 µM
- cytotoxicity at 30 µM ([5]; Homo sapiens): 48.7%
- IC50 (HT-29 (colon cancer)): 36.1 µM

SMILES: Cc1nc2c(c(C)c1O)/C(=C/c1[nH]c(C)c(C(=O)NCCN3CCCCC3)c1C)C(=O)N2 [Compound I-42, (Z)-5-((5-Hydroxy-4,6-dimethyl-2-oxo-1H-pyrrolo[2,3-b]pyridin-3(2H)-ylidene)methyl)-2,4-dimethyl-N-(2-(piperidin-1-yl)ethyl)-1H-pyrrole-3-carboxamide]
- IC50 (U937 (myeloid leukemia)): 14.8 µM
- IC50 at 48 h [1]: 21.4 µM
- cytotoxicity at 30 µM [2]: 63.4%
- IC50 [2]: 8.7 µM
- IC50 at 48 h [3]: 51.3 µM
- IC50 [4]: 8.12 µM
- IC50 (A549 (lung cancer)): 13.2 µM
- cytotoxicity at 30 µM ([5]; Homo sapiens): 70.7%
- IC50 (HT-29 (colon cancer)): 15.2 µM

SMILES: Cc1nc2c(c(C)c1O)/C(=C/c1ccoc1)C(=O)N2 [Compound I-28, (Z)-3-(Furan-3-ylmethylene)-5-hydroxy-4,6-dimethyl-1H-pyrrolo[2,3-b]pyridin-2(3H)-one]
- IC50 (DU145 (prostate cancer)): 22.9 µM
- IC50 (U937 (myeloid leukemia)): 31.5 µM
- IC50 at 48 h [1]: 19.9 µM
- cytotoxicity at 30 µM [2]: 66.3%
- IC50 [2]: 22.9 µM
- IC50 at 48 h [3]: > 90 µM
- cytotoxicity at 30 µM ([5]; Homo sapiens): 26.1%
